Among the test systems are SF-268 CNS; CCRF-CEM leukemia; OVCAR-3 ovarian; NCI-H23 lung; RPMI-8226 leukemia; OVCAR-8 ovarian; UO-31 renal; NCI-H522 lung; HOP-92 NSCLC.
Assay in all cases: NCI tumour cell line growth inhibition, 48 h

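Protocol summary: plate cells (96-well), add compound at 5 concentrations, incubate 48 h, interpolate endpoints linearly. At the GI50, growth is halved. TGI: concentration producing complete growth inhibition.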 Some results are limits rather than exact numbers.

On to `c1ccc(C(c2ccccc2)c2cccnc2)cc1`, for which the TGI in the assay with SF-268 CNS, in the assay on CCRF-CEM leukemia, in the assay with OVCAR-3 ovarian, in the assay on NCI-H23 lung, in the assay with RPMI-8226 leukemia and with OVCAR-8 ovarian was > 100 µM in each case. The TGI in the assay on UO-31 renal was > 100 µM.
With `Cc1cc(NCCCCCCNc2cc(C)nc3cc(N(C)C)ccc23)c2ccc(N(C)C)cc2n1`, the TGI in the assay with SF-268 CNS, in the assay on CCRF-CEM leukemia, in the assay on OVCAR-3 ovarian, in the assay on NCI-H23 lung, with OVCAR-8 ovarian and with NCI-H522 lung was > 100 µM throughout. Moreover, the TGI in the assay on UO-31 renal was > 100 µM.
As for `C1COCCN1.C1COCCN1.NC1CCCCC1N.[Cl-].[Pt+2]` (stereo not drawn), the GI50 in the assay on SF-268 CNS, with HOP-92 NSCLC, in the assay with CCRF-CEM leukemia, in the assay with OVCAR-3 ovarian, with NCI-H23 lung and with RPMI-8226 leukemia was > 100 µM in each case. Also, the GI50 is > 100 µM in the assay with OVCAR-8 ovarian, 46.5 µM in the assay on NCI-H522 lung and > 100 µM with UO-31 renal. In addition, the TGI in the assay with SF-268 CNS, with HOP-92 NSCLC, in the assay on CCRF-CEM leukemia, with OVCAR-3 ovarian, with NCI-H23 lung and in the assay on RPMI-8226 leukemia was > 100 µM in each case. In addition, the TGI with OVCAR-8 ovarian, in the assay on NCI-H522 lung and in the assay on UO-31 renal was > 100 µM throughout.
With `CCOC1=C2C(=O)OC(=O)C2C2CCCCC2=C1` (stereo not drawn), the TGI in the assay with SF-268 CNS, with HOP-92 NSCLC, in the assay on CCRF-CEM leukemia, in the assay on OVCAR-3 ovarian, with NCI-H23 lung and in the assay on RPMI-8226 leukemia was > 100 µM in each case. Moreover, the TGI with OVCAR-8 ovarian, in the assay with NCI-H522 lung and with UO-31 renal was > 100 µM throughout.
Regarding `O=c1c2ccccc2c(=O)n2n1CC=CC2`, the TGI in the assay with SF-268 CNS, with HOP-92 NSCLC, in the assay with CCRF-CEM leukemia, in the assay with OVCAR-3 ovarian, in the assay with NCI-H23 lung and in the assay with RPMI-8226 leukemia was > 100 µM throughout. In addition, the TGI with OVCAR-8 ovarian, in the assay with NCI-H522 lung and in the assay on UO-31 renal was > 100 µM each time.
On to `CC(C)CCCC(C)[C@H]1CCC2[C@@H]3CCC4Nc5nocc5C[C@]4(C)C3CC[C@@]21C` (stereo partly drawn), for which the TGI with SF-268 CNS came to 36.8 µM; in the assay with CCRF-CEM leukemia it was 36.9 µM; with OVCAR-3 ovarian, 20.5 µM; in the assay with NCI-H23 lung it was 31.4 µM; with RPMI-8226 leukemia it was 69.3 µM; in the assay with OVCAR-8 ovarian, 35.9 µM. Further, the figures for the TGI in the assay on NCI-H522 lung and in the assay with UO-31 renal were 14.5 µM and 27.9 µM, respectively.
For `N.N.N.N.N.[Cl-].[Co+3].c1ccc(-c2nn[n-]n2)cc1`, the GI50 with SF-268 CNS, in the assay on HOP-92 NSCLC, in the assay on CCRF-CEM leukemia, in the assay with OVCAR-3 ovarian, in the assay with NCI-H23 lung and in the assay on RPMI-8226 leukemia was > 100 µM throughout. Also, the GI50 with OVCAR-8 ovarian and in the assay with UO-31 renal was > 100 µM throughout. In addition, the TGI in the assay with SF-268 CNS, with HOP-92 NSCLC, with CCRF-CEM leukemia, in the assay on OVCAR-3 ovarian, in the assay with NCI-H23 lung and with RPMI-8226 leukemia was > 100 µM each time. For the same molecule, the TGI in the assay on OVCAR-8 ovarian and in the assay with UO-31 renal was > 100 µM in each case.
Take `COCC(O)Cn1ccnc1[N+](=O)[O-]` (stereo not drawn): the TGI in the assay on SF-268 CNS, with CCRF-CEM leukemia, in the assay with OVCAR-3 ovarian, in the assay on NCI-H23 lung, in the assay on RPMI-8226 leukemia and with OVCAR-8 ovarian was > 100 µM each time. Besides, the TGI in the assay with NCI-H522 lung and in the assay on UO-31 renal was > 100 µM each time.
Regarding `O=C1Nc2nc3ccccc3n2N=C2CCCC12` (stereo not drawn), the TGI with SF-268 CNS, in the assay on CCRF-CEM leukemia, in the assay on OVCAR-3 ovarian, with NCI-H23 lung, in the assay on RPMI-8226 leukemia and with OVCAR-8 ovarian was > 100 µM throughout. The TGI with UO-31 renal is > 100 µM.
Take `O=C1C2C3C=C4c5ccccc5N(c5ccccc5)C4(C2C(=O)N1c1ccc(Cl)cc1)[C@H]1C(=O)N(c2ccc(Cl)cc2)C(=O)[C@@H]31` (stereo partly drawn): the TGI in the assay with HOP-92 NSCLC, in the assay with CCRF-CEM leukemia, in the assay with OVCAR-3 ovarian, with NCI-H23 lung, with RPMI-8226 leukemia and in the assay with OVCAR-8 ovarian was > 100 µM each time. For the same molecule, the TGI in the assay with NCI-H522 lung and with UO-31 renal was > 100 µM in each case.
For the molecule `O=C(O/C(=C(/N=Nc1ccccc1)c1ccccc1)c1ccccc1)c1ccccc1`, the TGI in the assay with HOP-92 NSCLC, with NCI-H23 lung, in the assay with RPMI-8226 leukemia, with OVCAR-8 ovarian, in the assay with NCI-H522 lung and in the assay on UO-31 renal was > 100 µM throughout.
As to `CCOC(=O)c1c2c(n(Cc3ccc(Cl)cc3Cl)c1C)-c1nc[nH]c1C(=O)C2=O`, the GI50 was 7.89 µM with SF-268 CNS; 1.28 µM in the assay with HOP-92 NSCLC; 0.651 µM with CCRF-CEM leukemia; 2.86 µM with OVCAR-3 ovarian; 2.5 µM with RPMI-8226 leukemia; 10.5 µM in the assay with OVCAR-8 ovarian. The results for the GI50 in the assay on NCI-H522 lung and in the assay on UO-31 renal were 10.3 µM and 12.4 µM, respectively. In addition, the TGI with SF-268 CNS is 20.4 µM; in the assay with HOP-92 NSCLC, 2.75 µM; in the assay with CCRF-CEM leukemia it was 2.29 µM; with OVCAR-3 ovarian, 10.6 µM; in the assay on RPMI-8226 leukemia, 6.03 µM; in the assay with OVCAR-8 ovarian, 22.2 µM. The TGI worked out at 23.1 µM with NCI-H522 lung and 49.5 µM with UO-31 renal.
In the case of `COc1cc([C@@H]2c3cc4c(cc3[C@@H](OC(=O)c3ccc(N)cc3)C3COC(=O)[C@@H]32)OCO4)cc(OC)c1O` (stereo partly drawn), the TGI in the assay with SF-268 CNS is > 95 µM; in the assay with HOP-92 NSCLC it was 20.7 µM; with CCRF-CEM leukemia it was > 95 µM; in the assay on OVCAR-3 ovarian, 35 µM; in the assay on NCI-H23 lung, 14.4 µM; in the assay on RPMI-8226 leukemia, 58 µM. Further, the figures for the TGI with OVCAR-8 ovarian, in the assay on NCI-H522 lung and in the assay with UO-31 renal were 78.5 µM, 5.35 µM and 34.5 µM, respectively.

(Values after PubChem BioAssay (NCI).)
